In the supplement of paper PMC5908809:

Experiments:
[1] = test system: normal NK cells expanded with K562-aAPC; test: percent inhibition of viability; higher = more inhibition; conditions: 72 h, IL-2 2.5 ng/mL
Experimental: (§1)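 Drug sensitivity and resistance testing on K562-aAPC-expanded normal NK cells: 5 concentrations (10-fold steps over a 10,000-fold range), 72 h at 37 °C, viability by CellTiter-Glo normalised to DMSO and benzethonium chloride controls; DSS from the fitted curve.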

DERL-7 (IL-2 2.5 ng/mL) [2] = test: as above; conditions: 72 h
IMC-1 (IL-2 20 ng/mL) [3] = test: as above; conditions: 72 h
KAI3 (IL-2 2.5 ng/mL) [4] = test: as above; conditions: 72 h
KHYG-1 (IL-2 2.5 ng/mL) [5] = test: as above; conditions: 72 h
NK-92 (IL-2 2.5 ng/mL) [6] = test: as above; conditions: 72 h
NK-YS (IL-2 2.5 ng/mL) [7] = test: as above; conditions: 72 h
NKL (IL-2 2.5 ng/mL) [8] = test: as above; conditions: 72 h
SNK-6 (IL-2 2.5 ng/mL) [9] = test: as above; conditions: 72 h
YT (IL-2 2.5 ng/mL) [10] = test: as above; conditions: 72 h
[11] = test system: normal primary NK cells, pool 1 (3 donors) (IL-2 2.5 ng/mL); test: as above; conditions: 72 h
[12] = test system: normal primary NK cells, pool 1 (3 donors), resting (IL-2 0 ng/mL); test: as above; conditions: 72 h
[13] = test system: normal primary NK cells, pool 2 (3 donors) (IL-2 2.5 ng/mL); test: as above; conditions: 72 h
[14] = test system: normal primary NK cells, pool 3 (3 donors) (IL-2 2.5 ng/mL); test: as above; conditions: 72 h
[15] = test system: normal NK cells expanded with K562-aAPC; test: drug sensitivity score (DSS) (DSS units); higher = more sensitive; extreme values may be limits of the assay; conditions: 72 h; IL-2 2.5 ng/mL
Experimental: as §1

DERL-7 (IL-2 2.5 ng/mL) [16] = test: as above; conditions: 72 h
IMC-1 (IL-2 20 ng/mL) [17] = test: as above; conditions: 72 h
KAI3 (IL-2 2.5 ng/mL) [18] = test: as above; conditions: 72 h
KHYG-1 (IL-2 2.5 ng/mL) [19] = test: as above; conditions: 72 h
NK-92 (IL-2 2.5 ng/mL) [20] = test: as above; conditions: 72 h
NK-YS (IL-2 2.5 ng/mL) [21] = test: as above; conditions: 72 h
NKL (IL-2 2.5 ng/mL) [22] = test: as above; conditions: 72 h
SNK-6 (IL-2 2.5 ng/mL) [23] = test: as above; conditions: 72 h
YT (IL-2 2.5 ng/mL) [24] = test: as above; conditions: 72 h
[25] = test system: normal primary NK cells, pool 1 (3 donors) (IL-2 2.5 ng/mL); test: as above; conditions: 72 h
[26] = test system: normal primary NK cells, pool 1 (3 donors), resting (IL-2 0 ng/mL); test: as above; conditions: 72 h
[27] = test system: normal primary NK cells, pool 2 (3 donors) (IL-2 2.5 ng/mL); test: as above; conditions: 72 h
[28] = test system: normal primary NK cells, pool 3 (3 donors) (IL-2 2.5 ng/mL); test: as above; conditions: 72 h

CN(c1ncccc1CNc1nc(Nc2ccc3c(c2)CC(=O)N3)ncc1C(F)(F)F)S(C)(=O)=O (max concentration tested 10000 nM)
percent inhibition of viability [%]
Conditions | 1 nM | 10 nM | 100 nM | 1000 nM | 10000 nM
DERL-7 (IL-2 2.5 ng/mL) [2] | -3.04 | -1.94 | -4.92 | 14.9 | 99.9
IMC-1 (IL-2 20 ng/mL) [3] | -1.02 | -1.57 | 1.51 | 2.71 | 97.8
KAI3 (IL-2 2.5 ng/mL) [4] | -4.38 | -3.17 | -1.99 | 15.1 | 94.9
KHYG-1 (IL-2 2.5 ng/mL) [5] | 1.46 | -1.82 | -1.38 | 42.5 | 95.7
NK-92 (IL-2 2.5 ng/mL) [6] | -15.3 | -22 | -13 | 1.77 | 94.6
NK-YS (IL-2 2.5 ng/mL) [7] | 1.14 | -3.29 | -8.54 | 31.5 | 92.8
NKL (IL-2 2.5 ng/mL) [8] | -0.23 | -12.4 | -5.82 | 24.1 | 95
SNK-6 (IL-2 2.5 ng/mL) [9] | 8.22 | -2.6 | -15.8 | 2.42 | 59.8
YT (IL-2 2.5 ng/mL) [10] | 2.65 | -2.39 | -3.31 | 24.6 | 95.2
[1] | -0.87 | -5.24 | -0.38 | 6.43 | 99.8
[11] | -2.69 | -13.7 | -10.8 | 10 | 97.2
[12] | -20.5 | -23.2 | -40 | -70.9 | 88.9
[13] | -12.4 | -9.66 | -11.1 | -4.87 | 94.8
[14] | -12.7 | -6.19 | -9.86 | -12.6 | 97.7

Conditions | drug sensitivity score
DERL-7 (IL-2 2.5 ng/mL) [16] | 8
IMC-1 (IL-2 20 ng/mL) [17] | 5.8
KAI3 (IL-2 2.5 ng/mL) [18] | 7.77
KHYG-1 (IL-2 2.5 ng/mL) [19] | 10.8
NK-92 (IL-2 2.5 ng/mL) [20] | 5.49
NK-YS (IL-2 2.5 ng/mL) [21] | 9.57
NKL (IL-2 2.5 ng/mL) [22] | 8.95
SNK-6 (IL-2 2.5 ng/mL) [23] | 3.56
YT (IL-2 2.5 ng/mL) [24] | 9.01
[15] | 6.5
[25] | 7.02
[26] | 3.17
[27] | 4.9
[28] | 4.64
